The subject of one assay is Sprague-Dawley rats. Kind of assay: CFA-Induced Paw Radiant Heat Hypersensitivity. The assay is classed as in vivo, rat. The conditions noted are these: HPbCD, Na salt form. As for the experimental part: Intraplantar injection of complete Freund's adjuvant (CFA) in rodents results in a long-lasting inflammatory reaction, characterized by a pronounced hypersensitivity to both thermal and mechanical stimuli. This hypersensitivity peaks between 24-72 hours following injection and can last for several weeks. To assess whether test compounds of the formula (I) reverse established hypersensitivity, a 100 μL intraplantar injection of CFA (suspended in a 1:1 emulsion of saline and heat-killed Mycobacterium tuberculosis in mineral oil) can be injected into a single hind paw of Sprague-Dawley rats (typically males ranging from 150-350 g). This paradigm also may be conducted with a multiple dosing or a prophylactic dosing regime designed to alter the course of hyperalgesia development. This test predicts the analgesic, anti-allodynic and antihyperalgesic effect of numerous effective clinical agents, including acetaminophen, NSAIDS such as aspirin and ibuprofen, and opioids, such as morphine.
Each rat is placed in a test chamber on a warm glass surface and allowed to acclimate for approximately 10 minutes. A radiant thermal stimulus (beam of light) is then focused through the glass onto the plantar surface of each hind paw in turn. The thermal stimulus is automatically shut off by a photoelectric relay when the paw is moved or when the cut-off time is reached (20 seconds for radiant heat at […]). An initial (baseline) response latency to the thermal stimulus is recorded for each animal prior to the injection of CFA. Twenty-four hours following intraplantar CFA injection, the response latency of the animal to the thermal stimulus is then re-evaluated and compared to the animal's baseline response time. […] Immediately following the post-CFA latency assessment, test compound or vehicle (usually Solutol, hydroxypropyl methylcellulose, hydroxypropyl beta-cyclodextrin or PEG-400) is administered i.p. or p.o. to rats. Post-compound treatment withdrawal latencies are assessed at fixed time intervals, typically 30, 60 and 120 minutes. The percent reversal (% R) of hypersensitivity is calculated according to the following formula: % Reversal=(Treatment Response-CFA Response)/(Baseline Response-CFA Response)×100.

In another assay the target is human TRPM8 (Homo sapiens (Human), UniProt Q7Z2W7). In words: In Vitro Human TRPM8 Functional Assay (Ca2+ fluorescence, icilin EC80). Conditions: read-out: hTRPM8 IC50. The assay is classed as cell-based. The method, then: HEK293 cells are routinely grown as monolayer in Dulbecco's minimum essential medium supplemented with 10% FBS, 1 mM L-glutamine, 100 units/mL penicillin and 100 ug/mL streptomycin. Cells are maintained in 5% CO2 at 37° C.
For functional expression of TRPM8, the full-length cDNA encoding human and rat TRPM8 are subcloned into pCI-NEO mammalian expression vectors. The expression constructs are transiently transfected into HEK293 cells according to the FuGENE 6 Transfection Reagent® (ROCHE) instructions. Within twenty-four hours, transiently transfected cells are harvested and either seeded directly into assay plate or cryopreserved for future usage. […]
Maximal fluorescence intensity (FI) achieved upon addition of icilin is exported from the FDSS and further analyzed using GraphPad Prism 3.02 (Graph Pad Software Inc., CA, U.S.A.) where data is normalized to percent of maximal response. The dose response curves from the average of quadruplicate wells for each data point are analyzed by using nonlinear regression of either sigmoidal dose response or sigmoidal dose response (variable slope). Finally, the IC50 values are calculated with the best-fit dose curve determined by Prism.

A further assay addresses canine TRPM8 (Canis lupus familiaris, UniProt Q1A7N1). Kind of assay: TRPM8 Patch Clamp Assays (whole-cell, menthol or cold activation). The assay is classed as cell-based. The method, then:
For patch clamp experiments, HEK293 cells are stably transfected with canine TRPM8 and cultured in DMEM supplemented with 10% fetal bovine serum, 100 units/ml penicillin, 100 μg/ml streptomycin and 1 mg/ml G418. Cells are maintained at 37° C. and in 5% CO2.
The extracellular solution contains (in mM): NaCl, 132; EGTA, 1; KCl, 5.4; MgCl2, 0.8; HEPES, 10; glucose, 10; pH=7.4. Recordings are performed using the conventional whole-cell patch clamp technique, 1-2 days after plating cells onto glass coverslips at densities appropriate for single cell recording. Currents are amplified by a patch clamp amplifier and filtered at 2 kHz (Axopatch 200B, Molecular Devices, Union City, Calif.). Menthol (100 μM) is applied to the cell at 0.5 ml/min via a gravity-fed perfusion system. Recordings involving menthol activation are performed at 22° C.
In experiments where temperatures are varied, temperature ramps are generated by cooling the perfusate in an in-line cooler (Model SC-20, Warner Instruments, Hamden, Conn.) controlled by a temperature controller (Model CL-100, Warner Instruments). The temperature in the vicinity of the recorded cell is measured with a custom-made miniature thermo-microprobe connected to a monitoring thermometer (Model TH-8, Physitemp, Clifton, N.J.), and sampled using Digidata 1322A and pClamp 9.0 (Molecular Devices), as are the currents concurrently measured in the whole-cell patch clamp mode. The current is continuously sampled (at 100 Hz) at a holding potential of −60 mV.
Compounds of the formula (I) are diluted from 10 mM DMSO stocks (stored at −20° C.) into an extracellular solution either containing 100 μM menthol or subjected to cooling. Increasing concentrations of a compound are applied to a cell in a cumulative manner and concentration-dependent responses are measured after steady-state activation is achieved by either 100 μM menthol or cooling to 10° C. A saturating concentration of a reference antagonist is applied at the end of an experiment (either in the presence of 100 μM menthol or 10° C. temperature) to establish the baseline from which all the other measurements are subtracted.
Percentage inhibition by a compound is calculated as follows:
100×(1−Icomp/I0); where Icomp and I0 are steady-state current amplitudes in either the presence or absence of a concentration of compounds of the formula (I).

Several values for one entry are separate records, joined by “and”; a condition that tells them apart may be missing. Identical values can stand only once. Like-named read-outs stand apart in the source and are kept apart here.

canine TRPM8, sequence (Q1A7N1 1-1104): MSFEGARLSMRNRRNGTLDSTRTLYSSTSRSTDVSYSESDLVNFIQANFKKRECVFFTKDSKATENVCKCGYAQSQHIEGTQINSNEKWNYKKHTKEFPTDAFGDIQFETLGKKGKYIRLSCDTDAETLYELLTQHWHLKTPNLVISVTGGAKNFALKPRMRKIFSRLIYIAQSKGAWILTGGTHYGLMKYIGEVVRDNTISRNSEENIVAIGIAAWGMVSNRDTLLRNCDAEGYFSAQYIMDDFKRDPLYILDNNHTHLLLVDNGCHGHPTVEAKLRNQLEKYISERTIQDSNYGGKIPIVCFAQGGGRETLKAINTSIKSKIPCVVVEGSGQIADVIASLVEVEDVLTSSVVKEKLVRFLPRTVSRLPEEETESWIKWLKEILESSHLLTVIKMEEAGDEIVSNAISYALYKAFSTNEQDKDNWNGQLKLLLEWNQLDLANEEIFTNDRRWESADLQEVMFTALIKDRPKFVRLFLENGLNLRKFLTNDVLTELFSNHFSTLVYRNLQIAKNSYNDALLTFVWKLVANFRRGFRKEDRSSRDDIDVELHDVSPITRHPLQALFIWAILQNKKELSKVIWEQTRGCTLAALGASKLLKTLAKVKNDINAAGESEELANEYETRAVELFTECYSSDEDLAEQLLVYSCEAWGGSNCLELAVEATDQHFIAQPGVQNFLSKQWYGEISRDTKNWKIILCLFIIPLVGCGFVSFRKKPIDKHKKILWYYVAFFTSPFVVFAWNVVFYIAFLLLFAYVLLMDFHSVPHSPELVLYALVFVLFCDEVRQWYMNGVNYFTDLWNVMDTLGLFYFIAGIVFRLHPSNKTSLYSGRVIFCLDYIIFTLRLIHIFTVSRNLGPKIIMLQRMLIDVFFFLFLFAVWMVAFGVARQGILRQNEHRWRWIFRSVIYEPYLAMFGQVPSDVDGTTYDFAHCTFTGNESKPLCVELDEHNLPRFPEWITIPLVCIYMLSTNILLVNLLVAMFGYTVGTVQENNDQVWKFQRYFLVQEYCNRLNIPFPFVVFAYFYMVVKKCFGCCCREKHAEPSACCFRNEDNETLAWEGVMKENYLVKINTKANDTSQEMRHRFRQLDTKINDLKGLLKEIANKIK
human TRPM8, sequence (Q7Z2W7 whole entry): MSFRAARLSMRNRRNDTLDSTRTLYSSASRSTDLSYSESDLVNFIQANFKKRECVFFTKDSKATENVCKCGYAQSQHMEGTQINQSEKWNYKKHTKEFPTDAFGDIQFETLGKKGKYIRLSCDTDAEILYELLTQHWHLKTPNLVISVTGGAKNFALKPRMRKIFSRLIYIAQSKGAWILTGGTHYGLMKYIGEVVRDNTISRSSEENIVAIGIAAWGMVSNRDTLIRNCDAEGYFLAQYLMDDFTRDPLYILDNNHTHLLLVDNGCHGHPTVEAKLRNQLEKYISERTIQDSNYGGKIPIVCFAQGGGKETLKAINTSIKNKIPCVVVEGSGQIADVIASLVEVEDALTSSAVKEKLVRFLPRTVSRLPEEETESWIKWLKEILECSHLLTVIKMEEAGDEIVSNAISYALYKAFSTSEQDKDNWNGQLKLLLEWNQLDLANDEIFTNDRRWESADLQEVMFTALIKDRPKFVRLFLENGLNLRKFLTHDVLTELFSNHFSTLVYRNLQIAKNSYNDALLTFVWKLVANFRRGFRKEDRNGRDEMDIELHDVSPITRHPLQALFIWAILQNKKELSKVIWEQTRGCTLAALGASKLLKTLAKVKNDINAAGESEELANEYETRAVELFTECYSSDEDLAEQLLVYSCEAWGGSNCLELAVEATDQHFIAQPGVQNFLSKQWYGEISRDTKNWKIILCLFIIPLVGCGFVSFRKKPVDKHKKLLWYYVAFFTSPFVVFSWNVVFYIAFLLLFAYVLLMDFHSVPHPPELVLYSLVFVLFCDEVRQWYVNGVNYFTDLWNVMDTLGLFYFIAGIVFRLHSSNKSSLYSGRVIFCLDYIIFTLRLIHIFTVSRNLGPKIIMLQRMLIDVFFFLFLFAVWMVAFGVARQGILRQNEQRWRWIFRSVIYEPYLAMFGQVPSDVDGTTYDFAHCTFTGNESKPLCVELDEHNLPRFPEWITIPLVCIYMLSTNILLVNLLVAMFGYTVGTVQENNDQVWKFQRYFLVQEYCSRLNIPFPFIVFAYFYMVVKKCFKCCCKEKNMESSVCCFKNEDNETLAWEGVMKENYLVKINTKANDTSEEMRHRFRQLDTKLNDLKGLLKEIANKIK

A word on the IC50: it is the concentration at which inhibition is half-maximal. One may read the inhibition as the change of the read-out against control, counted positive when it falls. The low end stands for a weak effect, the high end for a strong effect. On to `Cc1c(N(Cc2ccc(F)c(C(F)(F)F)c2)S(=O)(=O)c2ccc(C(=O)O)cc2)sc2ccccc12` [Compound 306, N-(3-Methyl-benzo[b]thiophen-2-yl)-N-(4-fluoro-3-trifluoromethyl-benzyl)-4-carboxy-benzenesulfonamide], for which the “Percent Reversal” value in the assay on Sprague-Dawley rats (dose 3 p.o., treatment time 100 min) was 31%; with Sprague-Dawley rats (dose 5.6 p.o., treatment time 100 min), 76%; in the assay with Sprague-Dawley rats (dose 10 p.o., treatment time 100 min), 91% and 93%; in the assay with Sprague-Dawley rats (dose 30 p.o., treatment time 100 min), 59%. Also, the results for the IC50 at human TRPM8 (Freshly transfected cells), against canine TRPM8 (cold stimulation) and against canine TRPM8 (menthol stimulation) were 4 nM, 2.3 nM and 1.1 nM, respectively. Further, the figures for the inhibition at 0.001 µM on canine TRPM8 (cold stimulation) and at canine TRPM8 (menthol stimulation) were 22.4% and 47.3%, respectively. Also, the inhibition at 0.003 µM is 60.1% on canine TRPM8 (cold stimulation) and 78% against canine TRPM8 (menthol stimulation). Besides, the inhibition at 0.01 µM against canine TRPM8 (cold stimulation) was determined as 86.2%; against canine TRPM8 (menthol stimulation), 94.9%. Besides, testing at 0.03 µM against canine TRPM8 (cold stimulation, 0.03 μM) gave an inhibition of 97.3%. The same compound registered an inhibition at 0.0003 µM on canine TRPM8 (menthol stimulation) of 11.6%.

Regarding `Cc1c(N(Cc2ccc(OC(F)(F)F)cc2)S(=O)(=O)c2ccc(C(=O)O)cc2)sc2ccccc12` [Compound 496, N-(3-Methyl-benzo[b]thiophen-2-yl)-N-(4-trifluoromethoxy-benzyl)-4-carboxy-benzenesulfonamide], the “Percent Reversal” value in the assay with Sprague-Dawley rats (dose 1 p.o., treatment time 60 min) is 9%; in the assay with Sprague-Dawley rats (dose 3 p.o., treatment time 60 min), −10%; in the assay with Sprague-Dawley rats (dose 5.6 p.o., treatment time 60 min) it was 10%; in the assay on Sprague-Dawley rats (dose 30 p.o., treatment time 60 min), 30%. In addition, the IC50 came out at 1.4 nM at human TRPM8 (Cryopreserved cells), 0.554 nM at canine TRPM8 (cold stimulation) and 0.183 nM against canine TRPM8 (menthol stimulation). The inhibition at 0.0003 µM against canine TRPM8 (cold stimulation) worked out at 21.6%; against canine TRPM8 (menthol stimulation), 68.6%. Besides, the inhibition at 0.001 µM against canine TRPM8 (cold stimulation) was 77.7%; against canine TRPM8 (menthol stimulation), 95.8%. Further, the values for the inhibition at 0.003 µM against canine TRPM8 (cold stimulation) and against canine TRPM8 (menthol stimulation) were 96.4% and 99.6%, respectively. Besides, at canine TRPM8 (menthol stimulation, 0.0001 μM), 0.0001 µM produced 27.5% inhibition.

The values are drawn from patent publication US9434711B2 (Janssen Pharmaceutica, NV, priority 2007, dated 2016).
